According to patent US8263596B2, “Kinase inhibitors and method of treating cancer” (University Health Network, priority 2010, dated 2012):

How the values were obtained:
FLT3 = target: T1, FLT3 (Homo sapiens, UniProt P36888); assay: FLT3 inhibition assay (Z-Lyte); type: biochemical; conditions: read-out: IC50 Ranges Flt3
T1 construct: purchased Invitrogen PV3182
T1 sequence (P36888 27-993): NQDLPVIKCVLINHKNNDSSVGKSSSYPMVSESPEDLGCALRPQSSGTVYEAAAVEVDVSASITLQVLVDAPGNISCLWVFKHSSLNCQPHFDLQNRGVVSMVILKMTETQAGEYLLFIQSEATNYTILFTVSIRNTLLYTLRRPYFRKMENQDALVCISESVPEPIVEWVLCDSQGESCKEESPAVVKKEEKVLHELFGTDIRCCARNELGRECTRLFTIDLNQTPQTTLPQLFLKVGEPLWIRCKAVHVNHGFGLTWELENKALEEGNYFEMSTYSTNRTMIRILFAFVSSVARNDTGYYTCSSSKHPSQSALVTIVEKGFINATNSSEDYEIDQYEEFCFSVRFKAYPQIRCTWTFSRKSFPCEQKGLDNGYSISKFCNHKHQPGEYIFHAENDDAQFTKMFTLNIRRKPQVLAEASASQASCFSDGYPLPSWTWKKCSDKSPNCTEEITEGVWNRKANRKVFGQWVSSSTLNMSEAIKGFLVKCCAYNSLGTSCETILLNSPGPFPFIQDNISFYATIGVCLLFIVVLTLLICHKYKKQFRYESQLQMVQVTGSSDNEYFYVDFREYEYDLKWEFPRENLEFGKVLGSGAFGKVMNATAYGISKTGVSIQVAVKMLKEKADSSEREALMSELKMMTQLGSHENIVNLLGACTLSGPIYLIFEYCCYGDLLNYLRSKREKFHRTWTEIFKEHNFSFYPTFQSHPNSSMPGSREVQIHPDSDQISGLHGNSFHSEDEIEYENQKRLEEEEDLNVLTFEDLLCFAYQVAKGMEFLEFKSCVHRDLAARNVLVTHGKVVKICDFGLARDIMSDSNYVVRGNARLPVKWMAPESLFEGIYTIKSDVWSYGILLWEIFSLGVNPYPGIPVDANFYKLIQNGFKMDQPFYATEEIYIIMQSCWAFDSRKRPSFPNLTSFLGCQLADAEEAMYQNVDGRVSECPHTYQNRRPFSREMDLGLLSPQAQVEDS
Procedure: The enzymatic activity of FLT3 was determined using the Z-Lyte assay kit from Invitrogen (Invitrogen cat #PV3191). […] The % inhibition values were determined according to the manufacturer's directions and IC50 values were obtained using a non-linear 4 point logistic curve fit (XLfit4, IDBS).

human PLK4 = target: T2, human PLK4 (Homo sapiens, UniProt O00444); assay: PLK4 inhibition assay (indirect ELISA); type: biochemical; conditions: read-out: IC50 Ranges PLK4
T2 construct: amino terminal GST fusion of residues 1-391 of human PLK4; made in house; host or cells: E. coli
T2 sequence (O00444 1-391): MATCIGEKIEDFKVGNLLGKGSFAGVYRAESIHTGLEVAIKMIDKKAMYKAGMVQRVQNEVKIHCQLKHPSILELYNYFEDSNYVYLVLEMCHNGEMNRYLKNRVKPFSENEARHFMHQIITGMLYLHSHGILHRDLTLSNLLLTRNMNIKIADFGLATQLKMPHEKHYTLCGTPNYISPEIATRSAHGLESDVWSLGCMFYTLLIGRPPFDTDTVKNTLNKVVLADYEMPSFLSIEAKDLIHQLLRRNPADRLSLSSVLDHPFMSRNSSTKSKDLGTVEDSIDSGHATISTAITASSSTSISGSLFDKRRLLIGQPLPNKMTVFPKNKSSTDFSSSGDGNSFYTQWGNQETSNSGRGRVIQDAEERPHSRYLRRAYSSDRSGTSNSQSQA
Procedure: PLK4 activity was measured using an indirect ELISA detection system. […] The colourimetric reaction was allowed to continue for 5 minutes, followed by addition of stop solution (0.5 N sulphuric acid), and quantified by detection at 450 nm with either a monochromatic or filter based plate reader (Molecular Devices M5 or Beckman DTX880, respectively).
Compounds were pre-incubated in the presence of enzyme for 15 minutes prior to addition of ATP and the activity remaining quantified using the above described activity assay. […] The IC50 value was determined using a non-linear 4 point logistic curve fit (XLfit4, IDBS) with the formula; (A+(B/(1+((x/C)^D)))), where A=background value, B=range, C=inflection point, D=curve fit parameter.

Aurora B = Aurora B (Homo sapiens, UniProt Q96GD4); assay: Aurora B inhibition assay (Z-Lyte); type: biochemical; conditions: read-out: IC50 Ranges Aurora B
Sequence of Aurora B (Q96GD4 whole entry): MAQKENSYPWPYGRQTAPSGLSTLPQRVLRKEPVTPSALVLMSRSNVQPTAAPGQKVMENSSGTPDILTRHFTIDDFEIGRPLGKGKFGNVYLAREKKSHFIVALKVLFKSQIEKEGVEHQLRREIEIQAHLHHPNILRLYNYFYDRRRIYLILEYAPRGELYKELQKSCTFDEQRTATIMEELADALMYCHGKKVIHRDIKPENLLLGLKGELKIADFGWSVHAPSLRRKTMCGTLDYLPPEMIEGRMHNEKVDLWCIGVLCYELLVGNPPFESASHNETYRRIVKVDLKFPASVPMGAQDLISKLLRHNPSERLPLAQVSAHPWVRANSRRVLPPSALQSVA
Procedure: Aurora B inhibition was determined using the Z-Lyte assay kit from Invitrogen. […] The % inhibition values were determined according to the manufacturer's directions and IC50 values were obtained using a non-linear 4 point logistic curve fit (XLfit4, IDBS)

HUV-EC-C cells = assay: In vitro angiogenesis assay (tube formation); type: cell-based; conditions: 4 hr
Procedure: Activity against these RTKs can result in antiangiogenic activity which is associated with slowed tumor growth and/or tumor regression. To measure the antiangiogenic effects of compounds of the invention, selected examples were tested in an angiogenesis assay as described below.
HUV-EC-C cells were obtained from the American Type Culture Collection (ATCC, CRL-1730), and were used at early passage for the assay. The in vitro Angiogenesis Assay Kit (Chemicon) was used according to the manufacturer's recommendation. An ice-cold mixture of ECMatrix was transferred into a precooled 96-well plate. After the matrix solution had solidified (>1 hr incubation at 37° C.), 8,000 cells were mixed with the appropriate inhibitor concentration (in 100 microlitres EGM-2) and plated into each well. The clinical antiangiogenic, Sutent was used as a positive control in comparison to a compound of the invention, A13. After incubation at 37° C. for 4 hr, tube formation was inspected. Two methods, pattern recognition and branch point counting, were used to quantify the progression of angiogenesis and expressed as a percentage of the control tube count (FIGS. 1 and 2).

Compound | IC50 (FLT3) [nM] | IC50 (human PLK4) [nM] | IC50 (Aurora B) [nM] | antiangiogenic effect (tube formation) (HUV-EC-C cells)
COc1ccc2c(c1)[C@]1(C[C@H]1c1ccc3c(-c4cccc(CN5CCOCC5)c4)n[nH]c3c1)C(=O)N2 (relative stereo) [Example A136, (1R*,2S*)-5′-methoxy-2-(3-(3-(morpholinomethyl)phenyl)-1H-indazol-6-yl)spiro[cyclopropane-1,3′-indolin]-2′-one 2,2,2-trifluoroacetate] | > 1000 | < 100 | < 100 | –
O=C1Nc2ccccc2[C@]12C[C@H]2c1ccc2c(/C=C/c3ccncc3)n[nH]c2c1 (relative stereo) [Example A22, (1R*,2S*)-(E)-2-(3-(2-(pyridin-4-yl)vinyl)-1H-indazol-6-yl)spiro-[cyclo-propane-1,3′-indolin]-2′-one] | – | – | – | anti-agiogenic effects at submicromolar concentrations
CN(C)Cc1ccc(/C=C/c2n[nH]c3cc([C@@H]4C[C@@]45C(=O)Nc4ccccc45)ccc23)cc1 (relative stereo) [Example A23, (1R*,2S*)-(E)-2-(3-(4-((dimethylamino)methyl)styryl)-1H-indazol-6-yl)spiro[cyclopropane-1,3′-indolin]-2′-one 2,2,2-trifluoroacetate] | – | – | – | anti-agiogenic effects at submicromolar concentrations
COc1ccc2c(c1)[C@]1(C[C@H]1c1ccc3c(-c4ccc(N5CCN(C)CC5)nc4)n[nH]c3c1)C(=O)N2 (relative stereo) [Example A13, (1R*,2S*)-5′-Methoxy-2-(3-(6-(4-methylpiperazin-1-yl)pyridin-3-yl)-1H-indazol-6-yl)spiro[cyclopropane-1,3′-indolin]-2′-one] | – | – | – | anti-agiogenic effects at submicromolar concentrations
